Values of other authors, collected in patent US20160015644A1, “GASTRO-RETENTIVE SUSTAINED-RELEASE ORAL DOSAGE FORM OF A BILE ACID SEQUESTRANT” (IRONWOOD PHARMACEUTICALS, INC., priority 2013, published 2016).

Key:
[1] = molecular target: gastric proton pump (Homo sapiens, UniProt P20648)
[2] = molecular target: gastric proton pump (Canis lupus familiaris, UniProt P50996); settings: conscious, pentagastrin-stimulated fistula dog
Chain of gastric proton pump (Canis lupus familiaris, UniProt P50996) (P50996 whole entry): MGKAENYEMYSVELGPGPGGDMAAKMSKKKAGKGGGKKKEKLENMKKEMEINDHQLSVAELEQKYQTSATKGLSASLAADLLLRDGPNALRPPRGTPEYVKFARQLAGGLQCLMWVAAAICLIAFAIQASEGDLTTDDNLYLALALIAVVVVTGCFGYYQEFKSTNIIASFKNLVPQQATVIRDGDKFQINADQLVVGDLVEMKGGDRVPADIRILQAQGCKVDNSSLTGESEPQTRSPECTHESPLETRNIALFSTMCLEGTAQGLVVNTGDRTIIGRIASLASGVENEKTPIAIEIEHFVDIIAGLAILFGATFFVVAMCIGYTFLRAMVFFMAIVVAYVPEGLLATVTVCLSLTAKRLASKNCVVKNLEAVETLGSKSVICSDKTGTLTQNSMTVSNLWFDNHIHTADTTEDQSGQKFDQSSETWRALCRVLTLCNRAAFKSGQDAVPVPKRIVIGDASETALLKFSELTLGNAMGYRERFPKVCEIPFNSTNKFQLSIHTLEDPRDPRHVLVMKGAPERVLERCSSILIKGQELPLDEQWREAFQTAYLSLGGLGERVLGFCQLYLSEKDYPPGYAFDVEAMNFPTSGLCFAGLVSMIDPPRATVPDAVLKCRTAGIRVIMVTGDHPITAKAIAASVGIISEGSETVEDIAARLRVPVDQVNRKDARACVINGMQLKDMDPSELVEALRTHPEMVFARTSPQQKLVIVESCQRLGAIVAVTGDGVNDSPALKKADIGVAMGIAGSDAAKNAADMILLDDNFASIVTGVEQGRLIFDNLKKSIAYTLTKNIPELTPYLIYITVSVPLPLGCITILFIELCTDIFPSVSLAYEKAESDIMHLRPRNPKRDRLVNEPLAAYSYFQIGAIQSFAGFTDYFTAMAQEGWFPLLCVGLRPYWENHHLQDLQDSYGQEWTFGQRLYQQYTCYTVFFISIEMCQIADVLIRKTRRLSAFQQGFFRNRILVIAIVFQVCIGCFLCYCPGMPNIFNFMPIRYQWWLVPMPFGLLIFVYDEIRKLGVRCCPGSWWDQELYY
Chain of gastric proton pump (Canis lupus familiaris, UniProt P50996) (P33704 whole entry partner): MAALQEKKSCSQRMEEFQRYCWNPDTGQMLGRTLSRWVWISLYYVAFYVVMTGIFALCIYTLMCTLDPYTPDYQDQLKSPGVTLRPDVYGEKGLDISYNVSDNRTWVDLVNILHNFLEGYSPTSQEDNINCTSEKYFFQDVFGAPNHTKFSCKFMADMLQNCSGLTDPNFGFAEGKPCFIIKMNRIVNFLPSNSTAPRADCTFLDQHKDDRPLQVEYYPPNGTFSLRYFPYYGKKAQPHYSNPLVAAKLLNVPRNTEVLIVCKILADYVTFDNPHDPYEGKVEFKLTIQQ

Chain of gastric proton pump (Homo sapiens, UniProt P20648) (P20648 whole entry): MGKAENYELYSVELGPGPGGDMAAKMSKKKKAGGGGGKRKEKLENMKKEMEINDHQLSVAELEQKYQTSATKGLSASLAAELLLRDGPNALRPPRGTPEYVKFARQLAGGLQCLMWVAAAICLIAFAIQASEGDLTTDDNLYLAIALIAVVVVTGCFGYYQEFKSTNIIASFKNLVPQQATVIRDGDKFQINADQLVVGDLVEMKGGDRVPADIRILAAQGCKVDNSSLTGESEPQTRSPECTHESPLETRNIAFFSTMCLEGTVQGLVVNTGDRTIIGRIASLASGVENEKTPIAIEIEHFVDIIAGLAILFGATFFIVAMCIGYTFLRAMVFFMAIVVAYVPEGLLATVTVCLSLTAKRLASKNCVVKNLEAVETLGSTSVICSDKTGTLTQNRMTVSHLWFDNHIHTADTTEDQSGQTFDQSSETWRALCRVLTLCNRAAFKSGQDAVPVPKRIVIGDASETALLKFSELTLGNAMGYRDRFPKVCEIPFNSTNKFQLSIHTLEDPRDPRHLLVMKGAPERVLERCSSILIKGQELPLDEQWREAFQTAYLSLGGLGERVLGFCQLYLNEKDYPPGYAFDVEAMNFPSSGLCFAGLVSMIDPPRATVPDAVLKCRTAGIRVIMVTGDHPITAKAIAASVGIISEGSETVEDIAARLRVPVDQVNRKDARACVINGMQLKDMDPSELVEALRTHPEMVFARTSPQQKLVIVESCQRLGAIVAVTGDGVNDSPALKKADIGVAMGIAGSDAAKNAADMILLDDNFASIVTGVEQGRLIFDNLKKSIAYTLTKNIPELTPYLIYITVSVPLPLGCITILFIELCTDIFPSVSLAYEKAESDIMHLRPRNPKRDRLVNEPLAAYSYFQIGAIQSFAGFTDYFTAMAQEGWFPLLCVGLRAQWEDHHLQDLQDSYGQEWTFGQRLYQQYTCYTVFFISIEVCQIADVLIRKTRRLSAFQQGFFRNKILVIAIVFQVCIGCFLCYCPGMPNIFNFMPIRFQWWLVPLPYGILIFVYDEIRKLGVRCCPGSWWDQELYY
Chain of gastric proton pump (Homo sapiens, UniProt P20648) (P51164 whole entry partner): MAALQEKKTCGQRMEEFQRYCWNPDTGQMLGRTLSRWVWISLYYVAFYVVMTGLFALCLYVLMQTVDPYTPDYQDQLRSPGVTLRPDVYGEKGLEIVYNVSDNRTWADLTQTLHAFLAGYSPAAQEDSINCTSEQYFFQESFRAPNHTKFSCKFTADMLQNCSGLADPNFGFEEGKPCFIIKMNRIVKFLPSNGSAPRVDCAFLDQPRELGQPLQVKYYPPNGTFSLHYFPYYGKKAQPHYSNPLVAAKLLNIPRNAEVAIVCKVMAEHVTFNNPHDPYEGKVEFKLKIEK

COC(=O)Nc1cccc(C)c1CNc1cccn2c(C)c(C)nc12 [BY841, (8-(2-methoxcarbonylamino-6-methyl-phenylmethylamino)-2,3-dimethyl-imida [1,2-a]-pyridine)]
effectiveness in comparison with the standard dose of omeprazole ([1]; 50 mg or 100 mg twice daily, Day one of treatment): markedly more effective
potency in comparison with the standard dose of omeprazole ([1]; 50 mg or 100 mg twice daily, following repeated daily administration): at least as potent as omeprazole
intragastric pH ([1]; single 50 mg oral dose): about 6
intragastric pH [2]: ≤ 6
comparison with ranitidine and omeprazole ([2]; elevation of intragastric pH): superior to both ranitidine and omeprazole
